Here are results for 4 molecules from article PMC6566782, “Prodrugs for Skin Delivery of Menahydroquinone-4, an Active Form of Vitamin K2(20), Could Overcome the Photoinstability and Phototoxicity of Vitamin K2(20)” (International Journal of Molecular Sciences, 2019).

Data set [1] is described as follows: Photostability in ethanol under artificial sunlight (12,000 lx), LC-MS/MS. The data set is classed as physicochemical. Conditions: for main degradation product: sunlight irradiation (MKH-SUC also under shading); for photostability relative to MK-4: ethanol; for half-life at 1 µM: ethanol solution in quartz cells, read-out: half-life (t1/2) of degradation (converted). The protocol:
The relative irradiance of artificial sunlight at wavelengths of 300 to 800 nm is almost equal to that of natural sunlight, according to the manufacturer. […] MKH-SUC concentration decreased according to an apparent first order rate both with and without shading, although the rate of decrease was accelerated without shading. MKH-DMG and MKH-SUC were more photostable than MK-4 by ca. 50- and 3-fold, respectively.
(§1) Solutions of MK-4 and MKH derivatives in ethanol (1 µM) were irradiated with artificial sunlight (SOLAX 100 W XC-100 B, Seric Ltd., Tokyo, Japan) at 12,000 lx in quartz cells. Illuminance was measured using a digital luminometer (LX-1108, Mother Tool). Irradiation samples (1 µM in ethanol) were irradiated with artificial sunlight at 12,000 lx, and with monochromatic light (279, 341, 373, 404, and 435 nm) using a multi-wavelength irradiation spectrometer (MM 3, Bunkoukeiki Co., Ltd., Tokyo, Japan). Irradiation intensity was measured using an irradiation energy measurement power meter (MM 3, Bunkoukeiki Co., Ltd.).
(§2) LC-MS/MS was performed using an LCMS-8050 Liquid Chromatograph Mass Spectrometer (Shimadzu, Kyoto, Japan) and Shimadzu HPLC System (system controller (CBM-20A), pump (LD-20AD), degasser (DGU-20As), UV detector (SPD-20A), and auto injector (SIL-20AC HT)). Separations were performed on a CAPCELL PAK C18 UG120 (3 μm, 2.0 mm × 100 mm, Shiseido Co., Ltd., Tokyo, Japan) using a mobile phase of 10 mmol/L ammonium acetate and 0.1% acetic acid in methanol and water (97:3) at a flow rate of 0.4 mL/min. Column temperature was maintained at 40 °C. The mass spectrometer was equipped with an electrospray ionization and was run in positive ion mode. Identification and quantitation were based on MS/MS-multiple reaction monitoring mode using transition ions as follows: m/z 445 → 187 for the [M+H]^+ MK-4 adduct, m/z 445 → 187 for the [M + H]^+ chromenol adduct, 619 → 58 for the [M + H]^+ MKH-DMG adduct, m/z 532 → 58 for the [M + H]^+ MKH-mono-DMG adduct, m/z 664 → 187 for the [M + H]^+ MKH-SUC adduct, m/z 564 → 187 for the [M + H]^+ MKH-mono-SUC adduct, and m/z 461 → 81 for the [M + H]^+ MKO adduct.

Data set [2] in a line: Photostability in ethanol under monochromatic light of different wavelengths, LC-MS/MS. More on the design: key: -: No decomposition. As to conditions: 1 µM in ethanol, 25 °C. The data set is classed as physicochemical. The protocol:
To evaluate the effect of irradiation wavelength on photostability of MK-4 and MKH-ester derivatives, 1 μM solutions of MK-4, MKH-DMG, and MKH-SUC in ethanol were irradiated with a xenon light source monochromatic light at 279, 341, 373, 404, or 435 nm, and the concentration of each compound was measured by LC-MS/MS. The log of concentration of each compound was plotted against irradiation energy (Figure 3), and the rates and half-life energies of degradation were obtained from slopes (Table 2). […] Hydrolytic degradations of MKH-DMG and MKH-SUC to their corresponding monoesters were accelerated only at the short wavelength of 279 nm (Figure 3B,C).
as §1, §2

Data set [3] can be described thus: Singlet oxygen generation assay (p-nitrosodimethylaniline-based ROS assay) after UVA irradiation. The data set is classed as physicochemical. As to conditions: phosphate-buffered aqueous solution pH 7.4, UVA irradiation 0–15 J/cm^2. The protocol: It has been reported that singlet oxygen promotes the peroxidation of skin surface lipids, resulting in the induction of skin inflammation. Thus, we measured the irradiation intensity-dependent generation of singlet oxygen by MK-4, MKH-DMG, and MKH-SUC in phosphate-buffered aqueous solution after UVA irradiation using a p-nitrosodimethylaniline-based ROS assay (Figure 4).
MK-4 and MKH derivatives were dissolved in a phosphate buffer (NaPB, pH 7.4) containing 0.2% polyoxyethylene hydrogenated castor oil 40 (HCO 40, obtained as a gift sample from Nikko Chemicals Co., Ltd., Osaka, Japan), 2% dimethyl sulfoxide, and 0.1% glycerol. The solutions were treated according to the singlet oxygen assay method (The Japanese Center for the Validation of Alternative Methods, JaCVAM) and irradiated with UVA light from a CL-1000L UV Crosslinker (UVP, Upland, CA, USA). Absorbance was measured using an Infinite M200 PRO (Tecan Life Sciences, Zurich, Switzerland).

Data set [4] relates to HaCaT cells. The experiment in a line: Intracellular ROS generation assay (DCFH-DA) with or without UVA irradiation. The data set is classed as cell-based, Human. Conditions: UVA irradiation 15 J/cm^2. The protocol:
(§3) The in vitro phototoxicity of MK-4 and MKH derivatives were assessed by measuring the intracellular ROS generation and the viability of human epidermal keratinocyte cells (HaCaT) after UVA irradiation in the presence or absence of MK-4 and MKH derivatives. Intracellular ROS generation was determined using the cell permeable probe 2′,7′-dichlorofluorescein diacetate (DCFH-DA), which rapidly reacts with hydroxyl radicals. Cells without drug treatment or UVA irradiation were used as the control. ROS generation and cell viability are shown in Figure 5 and Figure 6, respectively.
Intracellular ROS generation was measured using 2′,7′-dichlorofluorescein diacetate (DCFH-DA; Invitrogen, Carlsbad, CA, USA) as a fluorescent probe. HaCaT cells were seeded at 1.0 × 10^5 cells/well in 96-well plates and cultured overnight. Thereafter, cells were washed with PBS and incubated with 10 µM DCFH-DA solution in PBS at 37 °C for 1 h. Following incubation, test compound solutions in PBS described above were added to each well and re-incubated for 1 h. After incubation, cells were irradiated with UVA at an irradiation intensity of 15 J/cm^2 and the fluorescence intensity (Ex: 485 nm, Em: 530 nm) was measured using an Infinite M200 PRO (Tecan Life Sciences).

Data set [5] has as its system HaCaT cells. Nature of the data set: Cell viability assay (CellTiter-Glo) 24 h after UVA irradiation. The data set is classed as cell-based, Human. As to conditions: 24 h after UVA irradiation 15 J/cm^2. The protocol: as §3
HaCaT cells were seeded at 1.0 × 10^5 cells/well in 96-well plates and cultured overnight. Thereafter, cells were washed with PBS, and test compound solutions in PBS described above were added to each well and re-incubated for 1 h. After incubation, cells were irradiated with UVA at an irradiation intensity of 15 J/cm^2. After irradiation, cells were washed twice with PBS and replaced in culture medium. After 24 h incubation, cell viability was measured using a CellTiter-Glo® Luminescent Cell Viability Assay (Promega, Madison, WI, USA).

Data set [6] deals with hepatocellular carcinoma (HCC) cells. More on the design: method as in PMID 30013007. As to conditions: compared with MK-4 ref 17; cited from earlier work.
Details of data set [7]: method as in PMID 7724483. Conditions: physiological pH 7.4 ref 14; cited from earlier work.
Another data set deals with cultured epidermis. More on the design: method as in doi:10.2772/23121. As to conditions: UVA irradiation ref 13; cited from earlier work.
Setting [8] is: 1 µM in ethanol, artificial sunlight 12,000 lx, 25 °C.
[9] abbreviates: 1 µM in ethanol, shading (covered with aluminum foil during irradiation), 25 °C.
Setting [10] is: artificial sunlight 12,000 lx, 25 °C.

Structures can show the parent of a compound that is named as a salt. Where two headings read alike, the source gives them in different places.

Regarding `CC(C)=CCC/C(C)=C/CC/C(C)=C/CC/C(C)=C/Cc1c(C)c(OC(=O)CCC(=O)O)c2ccccc2c1OC(=O)CCC(=O)O` [MKH-SUC, menahydroquinone-4 1,4-bis-hemisuccinate], the results for the “apparent first order rate constant (k) of degradation” value in data set [1] (setting [8]) and in data set [1] (setting [9]) were 2.796 h⁻¹ and 0.883 h⁻¹, respectively. In addition, in data set [1] (1 µM in ethanol), the main degradation product entry was “MKH-mono-SUC”. Moreover, the “photostability relative to MK-4” value in data set [1] (setting [10]) was roughly 3 fold. Moreover, the half-life at 1 µM in data set [1] (setting [8]) is 14.9 min; in data set [1] (setting [9]), 47.1 min. The “rate constant (k) of degradation” value in data set [2] (monochromatic light 279 nm) stood at 0.110 J^−1·cm^2; in data set [2] (monochromatic light 341 nm), 0.069 J^−1·cm^2; in data set [2] (monochromatic light 373 nm) it was 0.059 J^−1·cm^2; in data set [2] (monochromatic light 404 nm), 0.061 J^−1·cm^2; in data set [2] (monochromatic light 435 nm) it was 0.068 J^−1·cm^2. The singlet oxygen generation entry in data set [3] was “little generation of singlet oxygen”. The “intracellular ROS level” value in the data set on HaCaT cells [4] was “no significant changes”. Further, the cell viability result in the data set with HaCaT cells [5] is reported as “unaffected”. Further, the “delivery of MKH into HCC cells” value in data set [6] was “more effectively than MK-4”.
As for `CC(C)=CCC/C(C)=C/CC/C(C)=C/CC/C(C)=C/Cc1c(C)c(OC(=O)CN(C)C)c2ccccc2c1OC(=O)CN(C)C` [MKH-DMG, menahydroquinone-4 1,4-bis-N,N-dimethylglycinate hydrochloride], in data set [1] (setting [8]), the “apparent first order rate constant (k) of degradation” value turned out to be 0.167 h⁻¹. In data set [1] (1 µM in ethanol, shading, 25 °C), the “concentration change under shading” value is reported as “unchanged under shading”. Further, the main degradation product entry in data set [1] (1 µM in ethanol) is reported as “MKH-mono-DMG”. Further, the “photostability relative to MK-4” value in data set [1] (setting [10]) is “ca. 50 fold”. In addition, the half-life at 1 µM in data set [1] (setting [8]) was 249 min. The “rate constant (k) of degradation” value is given as 0.146 J^−1·cm^2 in data set [2] (monochromatic light 279 nm); “- ^b” in data set [2] (monochromatic light 341 nm); “- ^b” in data set [2] (monochromatic light 373 nm); “- ^b” in data set [2] (monochromatic light 404 nm); “- ^b” in data set [2] (monochromatic light 435 nm). For the same molecule, the “half-life energy (E1/2) of degradation” value in data set [2] (monochromatic light 341 nm), in data set [2] (monochromatic light 373 nm), in data set [2] (monochromatic light 404 nm) and in data set [2] (monochromatic light 435 nm) was “- ^b” each time. In addition, the singlet oxygen generation result in data set [3] is listed as “little generation of singlet oxygen”. In the data set on HaCaT cells [4], the “intracellular ROS level” value is “no significant changes”. The cell viability entry in the data set on HaCaT cells [5] is on record as “unaffected”. Besides, the “partition coefficient (log P)” value in data set [7] was 3.66. Moreover, in data set [6], the “delivery of MKH into HCC cells” value is given as “more effectively than MK-4”.
Take `COc1cc(O)c(C(=O)c2ccccc2)cc1S(=O)(=O)O` [sulisobenzone, reference compound]: the singlet oxygen generation entry in data set [3] is listed as “little generation of singlet oxygen”.
Turning to `CC1=C(C/C=C(\C)CCC[C@H](C)CCC[C@H](C)CCCC(C)C)C(=O)c2ccccc2C1=O` [vitamin K1], in the data set on cultured epidermis, the “phototoxicity against cultured epidermis” value was “exhibits phototoxicity”.
